# Columns and labels:
# Type in all cases: in vivo
# [1] = tested on: Beet Armyworm (Spodoptera exigua, LAPHEG); assay: Bioassay on Beet Armyworm (BAW), 128-well diet tray assay; details: 168 h, 50 μg/cm^2 on artificial diet, second instar larvae, 25° C., five to seven days, average of eight wells, read-out: BAW % Control (or Mortality) rating
# In short: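 Second-instar larvae, one to five per well, placed on artificial diet surface-treated with 50 μg/cm^2 compound applied in 90:10 acetone-water and dried. Held 5–7 days at 25° C., 14:10 light-dark. Percent mortality recorded per well and averaged over eight wells.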
# [2] = tested on: Cabbage Looper (Trichoplusia ni, TRIPNI); assay: Bioassay on Cabbage Looper (CL), 128-well diet tray assay; details: 168 h, 50 μg/cm^2 on artificial diet, second instar larvae, 25° C., five to seven days, average of eight wells, read-out: CL % Control (or Mortality) rating
# In short: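 Test molecule is dissolved in 90:10 acetone-water and applied at 50 μg/cm^2 onto artificial diet, then dried. One to five second-instar larvae go into each of eight wells. Trays, sealed but vented, stay at 25° C., 14:10 light-dark, five to seven days, after which mortality is averaged.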
# [3] = tested on: Yellow Fever Mosquito (Aedes aegypti, AEDSAE); details: about 1 day-old larvae, 96-well plate from 4000 ppm DMSO master, 3 days at room temperature
# Description: Certain molecules disclosed in this document were tested against YFM using procedures described in the following paragraph. In the reporting of the results, the “GPA & YFM Rating Table” was used (See Table Section).
# Master plates containing 400 μg of a molecule dissolved in 100 μL of dimethyl sulfoxide (DMSO) (equivalent to a 4000 ppm solution) are used. A master plate of assembled molecules contains 15 μL per well. To this plate, 135 μL of a 90:10 water/acetone mixture is added to each well. A robot is programmed to dispense 15 μL aspirations from the master plate into an empty 96-well shallow plate (“daughter” plate). There are 6 reps (“daughter” plates) created per master. The created “daughter” plates are then immediately infested with YFM larvae.
# The day before plates are to be treated, mosquito eggs are placed in Millipore water containing liver powder to begin hatching (4 g. into 400 mL). After the “daughter” plates are created using the robot, they are infested with 220 μL of the liver powder/larval mosquito mixture (about 1 day-old larvae). After plates are infested with mosquito larvae, a non-evaporative lid is used to cover the plate to reduce drying. Plates are held at room temperature for 3 days prior to grading. After 3 days, each well is observed and scored based on mortality. The results are indicated in the table entitled “Table ABC: Biological Results” (See Table Section).
smiles,measurement,setting,value
"N#CC1(NC(=O)c2cc(NC(=O)[C@H]3[C@H](c4cc(F)cc(C(F)F)c4)C3(Cl)Cl)ccc2Cl)CC1 (relative stereo) [Molecule F87, trans-2-Chloro-N-(1-cyanocyclopropyl)-5-(2,2-dichloro-3-(3-(difluoromethyl)-5-fluorophenyl)cyclopropane-1-carboxamido)benzamide]",mortality at 50 µg/cm2,[1],50 to 100%
same,mortality at 50 µg/cm2,[2],50 to 100%
same,YFM % Control (or Mortality) rating,[3],A (80-100)
"N#CC1(NC(=O)c2cc(NC(=O)[C@H]3[C@H](c4ccc(F)c(C(F)F)c4)C3(Cl)Cl)ccc2Cl)CC1 (relative stereo) [Molecule F88, trans-2-Chloro-N-(1-cyanocyclopropyl)-5-(2,2-dichloro-3-(3-(difluoromethyl)-4-fluorophenyl)cyclopropane-1-carboxamido)benzamide]",mortality at 50 µg/cm2,[1],50 to 100%
same,mortality at 50 µg/cm2,[2],50 to 100%
same,YFM % Control (or Mortality) rating,[3],A (80-100)
"N#CC1(NC(=O)c2cc(NC(=O)[C@H]3[C@H](c4ccc(C(F)F)c(Cl)c4)C3(Cl)Cl)ccc2Cl)CC1 (relative stereo) [Molecule F89, trans-2-Chloro-N-(1-cyanocyclopropyl)-5-(2,2-dichloro-3-(3-chloro-4-(difluoromethyl)phenyl)cyclopropane-1-carboxamido)benzamide]",mortality at 50 µg/cm2,[1],50 to 100%
same,mortality at 50 µg/cm2,[2],50 to 100%
same,YFM % Control (or Mortality) rating,[3],A (80-100)
"N#CC1(NC(=O)c2cc(NC(=O)[C@H]3[C@H](c4ccc(C(F)F)c(F)c4)C3(Cl)Cl)ccc2Cl)CC1 (relative stereo) [Molecule F90, trans-2-Chloro-N-(1-cyanocyclopropyl)-5-(2,2-dichloro-3-(4-(difluoromethyl)-3-fluorophenyl)cyclopropane-1-carboxamido)benzamide]",mortality at 50 µg/cm2,[1],50 to 100%
same,mortality at 50 µg/cm2,[2],50 to 100%
same,YFM % Control (or Mortality) rating,[3],A (80-100)
"N#CC1(NC(=O)c2cc(NC(=O)[C@H]3[C@H](c4cccc(C(F)F)c4)C3(Cl)Cl)ccc2Cl)CC1 (relative stereo) [Molecule F91, trans-2-Chloro-N-(1-cyanocyclopropyl)-5-(2,2-dichloro-3-(3-(difluoromethyl)-phenyl)cyclopropane-1-carboxamido)benzamide]",mortality at 50 µg/cm2,[1],50 to 100%
same,mortality at 50 µg/cm2,[2],50 to 100%
same,YFM % Control (or Mortality) rating,[3],A (80-100)
"N#CC1(NC(=O)c2cc(NC(=O)[C@H]3[C@H](c4ccc(C(F)F)cc4)C3(Cl)Cl)ccc2Cl)CC1 (relative stereo) [Molecule F92, trans-2-Chloro-N-(1-cyanocyclopropyl)-5-(2,2-dichloro-3-(4-(difluoromethyl)-phenyl)cyclopropane-1-carboxamido)benzamide]",mortality at 50 µg/cm2,[1],50 to 100%
same,mortality at 50 µg/cm2,[2],50 to 100%
same,YFM % Control (or Mortality) rating,[3],A (80-100)
"N#CC1(NC(=O)c2cc(NC(=O)[C@H]3[C@H](c4cc(F)cc(Cl)c4)C3(Cl)Cl)ccc2Cl)CC1 (relative stereo) [PF1, trans-2-Chloro-N-(1-cyanocyclopropyl)-5-(2,2-dichloro-3-(3-chloro-5-fluorophenyl)cyclopropane-1-carboxamido)benzamide]",mortality at 50 µg/cm2,[1],50 to 100%
same,mortality at 50 µg/cm2,[2],50 to 100%
same,YFM % Control (or Mortality) rating,[3],A (80-100)
"N#CC1(NC(=O)c2cc(NC(=O)[C@H]3[C@H](c4cc(Cl)cc(Br)c4)C3(Cl)Cl)ccc2Cl)CC1 (relative stereo) [PF4, trans-5-(3-(3-Bromo-5-chlorophenyl)-2,2-dichlorocyclopropane-1-carboxamido)-2-chloro-N-(1-cyanocyclopropyl)benzamide]",mortality at 50 µg/cm2,[1],50 to 100%
same,mortality at 50 µg/cm2,[2],50 to 100%
same,YFM % Control (or Mortality) rating,[3],A (80-100)
"O=C(NC1CC(F)(F)C1)c1cc(NC(=O)[C@H]2[C@H](c3cc(F)cc(Cl)c3)C2(Cl)Cl)ccc1Cl (relative stereo) [PF5, trans-2-Chloro-5-(2,2-dichloro-3-(3-chloro-5-fluorophenyl)cyclopropane-1-carboxamido)-N-(3,3-difluorocyclobutyl)benzamide]",mortality at 50 µg/cm2,[1],50 to 100%
same,mortality at 50 µg/cm2,[2],50 to 100%
same,YFM % Control (or Mortality) rating,[3],B (More than 0-Less than 80)
"O=C(NC1CC(F)(F)C1)c1cc(NC(=O)[C@H]2[C@H](c3ccc(Cl)c(F)c3)C2(Cl)Cl)ccc1Cl (relative stereo) [PF6, trans-2-Chloro-5-(2,2-dichloro-3-(4-chloro-3-fluorophenyl)cyclopropane-1-carboxamido)-N-(3,3-difluorocyclobutyl)benzamide]",mortality at 50 µg/cm2,[1],50 to 100%
same,mortality at 50 µg/cm2,[2],50 to 100%
same,YFM % Control (or Mortality) rating,[3],D (No activity noticed in this bioassay)
"O=C(NC1CN(C(=O)C2CC2)C1)c1cc(NC(=O)[C@H]2[C@H](c3cc(Cl)cc(Cl)c3)C2(Cl)Cl)ccc1Cl (relative stereo) [PF9, trans-2-chloro-N-(1-(cyclopropanecarbonyl)-azetidin-3-yl)-5-(2,2-dichloro-3-(3,5-dichlorophenyl)cyclopropane-1-carboxamido)benzamide]",mortality at 50 µg/cm2,[1],50 to 100%
same,mortality at 50 µg/cm2,[2],50 to 100%
same,YFM % Control (or Mortality) rating,[3],B (More than 0-Less than 80)
"O=C(NC1CN(C(=O)CC(F)(F)F)C1)c1cc(NC(=O)[C@H]2[C@H](c3cc(Cl)cc(Cl)c3)C2(Cl)Cl)ccc1Cl (relative stereo) [PF12, trans-2-Chloro-5-(2,2-dichloro-3-(3,5-dichlorophenyl)cyclopropane-1-carboxamido)-N-(1-(3,3,3-trifluoropropanoyl)azetidin-3-yl)benzamide]",mortality at 50 µg/cm2,[1],50 to 100%
same,mortality at 50 µg/cm2,[2],50 to 100%
same,YFM % Control (or Mortality) rating,[3],A (80-100)
"COCC(=O)N1CC(NC(=O)c2cc(NC(=O)[C@H]3[C@H](c4cc(Cl)cc(Cl)c4)C3(Cl)Cl)ccc2Cl)C1 (relative stereo) [PF14, trans-2-Chloro-5-(2,2-dichloro-3-(3,5-dichlorophenyl)cyclopropane-1-carboxamido)-N-(1-(2-methoxyacetyl)azetidin-3-yl)benzamide]",mortality at 50 µg/cm2,[1],50 to 100%
same,mortality at 50 µg/cm2,[2],50 to 100%
same,YFM % Control (or Mortality) rating,[3],A (80-100)
"O=C(NC1CC[S+]([O-])C1)c1cc(NC(=O)[C@H]2[C@H](c3cc(Cl)c(Cl)c(Cl)c3)C2(Cl)Cl)ccc1Cl (relative stereo) [PF18, trans-2-chloro-5-(2,2-dichloro-3-(3,4,5-trichloro-phenyl)cyclopropane-1-carboxamido)-N-(1-oxidotetrahydrothiophen-3-yl)-benzamide]",mortality at 50 µg/cm2,[1],50 to 100%
same,mortality at 50 µg/cm2,[2],50 to 100%
same,YFM % Control (or Mortality) rating,[3],A (80-100)
"O=C(NC1CCS(=O)(=O)C1)c1cc(NC(=O)[C@H]2[C@H](c3cc(Cl)c(Cl)c(Cl)c3)C2(Cl)Cl)ccc1Cl (relative stereo) [PF19, trans-2-Chloro-5-(2,2-dichloro-3-(3,4,5-trichlorophenyl)cyclopropane-1-carboxamido)-N-(1,1-dioxidotetrahydrothiophen-3-yl)benzamide]",mortality at 50 µg/cm2,[1],50 to 100%
same,mortality at 50 µg/cm2,[2],50 to 100%
same,YFM % Control (or Mortality) rating,[3],B (More than 0-Less than 80)
"CN(C(=O)c1cc(NC(=O)[C@H]2[C@H](c3cc(Cl)c(Cl)c(Cl)c3)C2(Cl)Cl)ccc1Cl)C1(C#N)CC1 (relative stereo) [PF21, trans-2-Chloro-N-(1-cyanocyclopropyl)-5-(2,2-dichloro-3-(3,4,5-trichloro-phenyl)cyclopropane-1-carboxamido)-N-methylbenzamide]",mortality at 50 µg/cm2,[1],50 to 100%
same,mortality at 50 µg/cm2,[2],50 to 100%
same,YFM % Control (or Mortality) rating,[3],B (More than 0-Less than 80)
"CN(C(=O)c1cc(NC(=O)[C@H]2[C@H](c3ccc(Cl)c(Cl)c3)C2(Cl)Cl)ccc1Cl)C1(C#N)CC1 (relative stereo) [PF22, trans-2-Chloro-N-(1-cyanocyclopropyl)-5-(2,2-dichloro-3-(3,4-dichloro-phenyl)cyclopropane-1-carboxamido)-N-methylbenzamide]",mortality at 50 µg/cm2,[1],50 to 100%
same,mortality at 50 µg/cm2,[2],50 to 100%
same,YFM % Control (or Mortality) rating,[3],B (More than 0-Less than 80)
"O=C(NC1CC1(F)F)c1cc(NC(=O)[C@H]2[C@H](c3cc(Cl)cc(Cl)c3)C2(Cl)Cl)ccc1Cl (relative stereo) [PF23, trans-2-Chloro-5-(2,2-dichloro-3-(3,5-dichlorophenyl)cyclopropane-1-carboxamido)-N-(2,2-difluorocyclopropyl)benzamide]",mortality at 50 µg/cm2,[1],50 to 100%
same,mortality at 50 µg/cm2,[2],50 to 100%
same,YFM % Control (or Mortality) rating,[3],A (80-100)

# Reference: patent publication US9795139B2, “Molecules having pesticidal utility, and intermediates, compositions, and processes, related thereto” (priority 2015, dated 2017)
